Source: patent US11964946B1, “4,5-bis(4-methoxyphenyl)-1-hexyl-2-(4-nitrophenyl)-1H-imidazole as an antimicrobial compound” (KING FAISAL UNIVERSITY, priority 2023, dated 2024)

Assays:
Assay in all cases: Antimicrobial screening, agar dilution method
Type in all cases: cell-based
Conditions in all cases: after 10, 20, 40 and 60 minutes at all dilutions 1:100, 1:200, 1:400, 1:800
Pseudomonas aeruginosa = test system: Pseudomonas aeruginosa
Protocol: (§1) The antimicrobial properties of the 4,5-bis(4-methoxyphenyl)-1-hexyl-2-(4-nitrophenyl)-1H-imidazole was studied by the method of agar dilution. Test solutions of each compound was prepared in concentration of 1% using dimethylformamide as a solvent then they were diluted in physiological solution to obtain the final experimental dilutions 1:100, 1:200, 1:400, 1:800. The effect of these substances were compared with furacillin in a controlled study. The testing microbes used were gram positive bacteria Staphylococcus aureus, gram negative bacteria Pseudomonas aeruginosa and Escherichia coli and Candida albicans fungi were taken. The experiments used for this survey were meat-pentonlu agar (EPA) for cultivation of bacteria and Saburo environment for fungi. Each experiment used 1 ml of test solution on each plate 500 min. Add 2 drops of emulsified with microbes feel. All experimental samples were taken from the agar after 10, 20, 40, 60 minutes in the environment on the basis of Patrk planted. Bacteria were cultivated at a temperature of 37° C. for 1 day and the mushroom was kept in a thermostat for […] at a temperature of 28° C. Then results were checked.

Candida albicans = test system: Candida albicans
Protocol: as §1

Escherichia coli = test system: Escherichia coli
Protocol: as §1

Staphylococcus aureus = test system: Staphylococcus aureus
Protocol: as §1

Measured: inhibition activity (in words)

CCCCCCn1c(-c2ccc(OC)c(OC)c2)nc(-c2ccc(Br)cc2)c1-c1ccc(Br)cc1 [4,5-bis(4-bromophenyl)-1-hexyl-2-(3,4-dimethoxyphenyl)-1H-imidazole]
highest inhibition activity: Pseudomonas aeruginosa | Candida albicans | Escherichia coli | Staphylococcus aureus
